Test results from patent EP2871962B1, “WOOD PROTECTION AGAINST MICROORGANISMS BY LACCASE-CATALYSED IODINATION” (EMPA Eidgenössische Materialprüfungs- und Forschungsanstalt, priority 2012, dated 2013).
Values joined by “and” are separate entries in the source; they are usually repeats but may differ in a detail not shown here. Equal entries are not always repeated.

Experiments:
[1] = test system: Aureobasidium pullulans; assay: Growth inhibition by iodinated and non-iodinated phenols on agar plates (Example 2); assay type: cell-based; conditions: ± standard deviation, n = 6; for inhibition at 1000 µM: 1mM in 2% malt extract agar; for inhibition at 2000 µM: 2mM in 2% malt extract agar; for inhibition at 4000 µM: 4mM in 2% malt extract agar
Method: (§1) Vanillin and ethyl-vanillin (4 mM) were incubated in the presence of commercial T. versicolor laccase (250 mg per L), 0.1 mM mediator ABTS and 50 mM potassium iodide in citrate-phosphate buffer (pH 5.0) for 20 h at room temperature. The reaction vessels with a liquid volume of 1 L were aerated with pressurized air through a frit. Reaction products were extracted by addition of 250 mL ethyl-acetate, thorough mixing and subsequent separation of the organic phase. The solvent was removed in a rotary evaporator at 50°C under vacuum until solid products were obtained. Reaction products were re-dissolved in ethyl-acetate and analysed by HPLC-MS.
(§2) For biotests, iodo-vanillin and iodo-ethyl-vanillin were dissolved to a concentration of 0.4 M in DMSO (stock solution). The non-iodinated reference compounds (educts) vanillin and ethyl-vanillin were dissolved to a concentration of 0.1 M in ethanol. All compounds were evaluated on agar plates (Ø 90mm). The compounds were added to 2% malt extract agar after autoclaving to final concentrations of 1, 2 and 4 mM, respectively. Control plates contained similar amounts of DMSO or ethanol as added with stock solutions. Supplemented agar plates were inoculated in the centre with a mycelium agar disc (9-mm diameter) taken from the submargins of 14-day old cultures of the basidiomycetes Oligoporus placenta, Gloephyllum trabeum, Coniophora puteana, Trametes versicolor and the ascomycete Aureobasidium pullulans. Plates were incubated at 22 °C and 70% RH. The radial fungal growth was estimated by measuring the colony diameter, and the growth inhibition was expressed as percentage reduction of this value after similar incubation times. Growth inhibition data of 6 replicate plates per compound/control were arcsine transformed prior to statistical analysis (ANOVA) and back transformed to numerical values for visualization. Means were separated using Tukey's HSD (honestly significant difference) test at significance levels with P values of <0.05 and <0.001. The statistical package used for all analyses was SPSS (version 17.0; SPSS Inc., Chicago, IL).

[2] = test system: Gloephyllum trabeum; assay: as above; assay type: cell-based; conditions: Gloeophyllum trabeum, ± standard deviation, n = 6, read-out: Growth inhibition, G. trabeum; for inhibition at 1000 µM: 1mM in 2% malt extract agar; for inhibition at 2000 µM: 2mM in 2% malt extract agar; for inhibition at 4000 µM: 4mM in 2% malt extract agar
Method: as §1, §2

[3] = test system: Oligoporus placenta; assay: as above; assay type: cell-based; conditions: Rhodonia placenta, ± standard deviation, n = 6, read-out: Growth inhibition, O. placenta; for inhibition at 1000 µM: 1mM in 2% malt extract agar; for inhibition at 2000 µM: 2mM in 2% malt extract agar; for inhibition at 4000 µM: 4mM in 2% malt extract agar
Method: as §1, §2

[4] = test system: Trametes versicolor; assay: as above; assay type: cell-based; conditions: ± standard deviation, n = 6, read-out: Growth inhibition, T. versicolor; for inhibition at 1000 µM: 1mM in 2% malt extract agar; for inhibition at 2000 µM: 2mM in 2% malt extract agar; for inhibition at 4000 µM: 4mM in 2% malt extract agar
Method: as §1, §2

[5] = test system: Coniophora puteana; assay: as above; assay type: cell-based; conditions: ± standard deviation, n = 6, read-out: Growth inhibition, C. puteana; for inhibition at 1000 µM: 1mM in 2% malt extract agar; for inhibition at 2000 µM: 2mM in 2% malt extract agar; for inhibition at 4000 µM: 4mM in 2% malt extract agar
Method: as §1, §2

[6] = test system: Trametes versicolor laccase; assay: Laccase-catalysed oxidation of iodide to tri-iodide with redox mediators (absorbance at 353 nm); assay type: biochemical
Method: The enzyme used in the study was a commercial laccase from Trametes versicolor (Sigma-Aldrich). […] Reactions were performed in transparent polymethyl methacrylate (PMMA) cuvettes or polystyrene micro titer plates. Change in absorbance (ΔA) at 420nm was recorded in intervals of 10sec for 3min. Samples with very high activities were diluted 10-fold with ddH2O before using them in the assay. Volumetric activities were calculated using an extinction coefficient (ε) of 0.036µmol^-1 1 cm^-1 (36000mol^-1 1 cm^-1) (22), according to the following equation (Δt in min, V in µl):
The laccase-catalysed oxidation of iodide (I^-) to iodine (I2) was monitored by the formation of triiodide (I3^-) at 353nm (laccase activity 0.12U ml^-1, 50mM iodide, citrate buffer pH 4.5, extinction coefficient of I3^- ε = 28000 mol^-1 1 cm^-1) (24, 17). […] Well-known synthetic (ABTS) and natural (acetosyringone [ACS], 4-hydroxybenzoic acid [HBA]) laccase mediators were tested (25, 26). […] The pH optima for mediator-enhanced oxidation of iodide were determined using the McIlvain citrate-phoshate buffer series.

[7] = test system: A. pullulans, C. picea, C. herbarum and D. pinicola; assay: Biotests 2: blue stain test of treated wood (EN 152-2, modified); assay type: cell-based; conditions: 6 weeks of incubation, mean of stain categories 0-5 ±SE, n = 6, Mediator = ACS (50 µM); for Blue stain discoloration, Leached: wood batch 2, leached (EN 84); for Blue stain discoloration, Non-leached: wood batch 2, non-leached
Method: (§3) Wood specimens (batch 1: 10 x 10 x 5 mm, length x width x height used in the biotests 1 and batch 2: 20 x 15 x 10 mm used in the biotests 2), free of defects, were extracted longitudinally from boards of Norway spruce trees grown in Switzerland, in order to minimize the influence of natural variability. All specimens were conditioned at 23C°(±1°C) and 50% (±5%) relative humidity (RH) until they reached an equilibrium moisture content of approximately 8-10%. Prior to the wood treatment the specimens were sterilized by autoclaving for 20min at 121°C(±1°C).
The enzymatic wood iodination and polymerisation were carried out by dipping three wood specimens of batch 1 in 30ml or 12 wood specimens of batch 2 in 200ml reaction solution (pH 4-6) containing one of the phenolic compounds (4mM), or potassium iodide (1 or 50mM) in the presence of laccase ([…]) for 18h at room temperature. Furthermore, to test the suitability of HBA (5mM) as mediator some additional experiments were performed. The chemical preservative VP 7/ 260a containing IPBC and propiconazole as active agents was used as a benchmark with a final concentration of 5% (v/v). The wood specimens were treated and used in the biological tests, with the following modifications: • Control = Wood treated with buffer • L = Wood treated with laccase alone • L-M = Wood treated with laccase and mediator • Iso = Wood treated with isoeugenol • Iso-L = Wood treated with isoeugenol and laccase • Iso-L-M = Wood treated with isoeugenol, laccase and mediator • Thy = Wood treated with thymol • Thy-L = Wood treated with thymol and laccase • Thy-L-M = Wood treated with thymol and laccase and mediator • Ix = Wood treated with 1 or 50mM iodide (x = concentration of iodide) • Ix-L = Wood treated with 1 or 50mM iodide and laccase • Ix-L-M = Wood treated with 1 or 50mM iodide, laccase and mediator • VP7 = Wood treated with VP 7/ 260a (IPBC and propiconazole)
After the reaction all wood specimens of batch 1 had undergone a leaching procedure comprising five cycles of incubation in ddH2O (liquid volume min. 10 times the specimen volume, 100rpm, room temperature, 24h) and water exchange. Half of the wood specimens of batch 2 were exposed to leaching for two weeks including nine steps of water changing according to EN 84 (29), the other half was used without leaching in biotests.
The resistance of the treated wood against blue stain and wood decay fungi was determined in biotests 2 according to the European standards EN 152-2 (30) and EN 113 (31) with slight modifications. The EN 152 is a classical test for blue staining, originally intended to determine the effectiveness of a preservative treatment against blue stain in service. The treated wood samples were dipped into a spore suspension of A. pullulans, C. picea, C. herbarum and D. pinicola (cfu: > 10^5) and placed horizontally in a Kolle flask containing vermiculite (18g) which was inoculated additionally with 40ml of the spore suspension. The incubated specimens were stored in an incubation room at 22°C and 70% RH (6 weeks). After incubation the surface was evaluated by classifying the percentage of blue-stain discolouration from 0 to 5 according to Thwaites et al. (32) (Table 1). Table 1: Determination of the blue stain discoloration

[8] = test system: T. versicolor; assay: Growth inhibition on supplemented malt extract agar plates (Example 1); assay type: cell-based, Trametes versicolor; conditions: 2% MEA; phenolic derivatives 4mM, VP 7/ 260a 5% (v/v); without wood; ±SE, n = 3
Method: (§4) In addition to the mentioned biotests 2 the antimicrobial activity of the reaction derivatives without wood was evaluated on agar plates (5), excluding the laccase-catalysed iodine solution. It was assumed that the iodine molecules would react with starch from malt to form polyiodide chains, which would prevent the antimicrobial effect (33). The laccase catalysis of the phenols was performed under shaking for 18h at room temperature as described above and the phenolic derivatives were added to 2% MEA after autoclaving to a final concentration of 4mM. The fungicide VP 7/ 260a were added to a concentration of 5% (v/v). The supplemented Petri dishes were inoculated in the centre with a mycelium agar disc (5mm diameter) taken from the sub-margin of 14 day old cultures of the ascomycetes A. pullulans and D. pinicola and the basidiomycetes O. placenta and T. versicolor. The fungal growth was estimated by measuring the colony diameter and the growth inhibition was expressed as % of reference grown on non-supplemented malt agar.

[9] = test system: D. pinicola; assay: as above; assay type: cell-based, Discula pinicola; conditions: 2% MEA; phenolic derivatives 4mM, VP 7/ 260a 5% (v/v); without wood; ±SE, n = 3
Method: as §4

[10] = test system: T. versicolor; assay: Biotests 2: mini-wood block decay test (comparable with EN 113), mass loss; assay type: cell-based, Trametes versicolor; conditions: wood batch 2, non-leached and leached, 12 weeks incubation; numbers only in Figure 2
Method: as §3
(§5) The enzymatic wood iodination and polymerisation were carried out by dipping three wood specimens of batch 1 in 30ml or 12 wood specimens of batch 2 in 200ml reaction solution (pH 4-6) containing one of the phenolic compounds (4mM), or potassium iodide (1 or 50mM) in the presence of laccase (10U ml^-1) and either 10µM ABTS for batch 1 or 100µM ACS for batch 2 under shaking (100rpm) for 18h at room temperature. […]
(§6) The treated wood was aseptically added to fully colonised Petri dishes (135mm diameter, 2% malt extract agar (MEA)) by O. placenta and T. versicolor respectively and incubated at 22C° and 70% RH. The ability of the wood-decay fungi to degrade the wood was determined gravimetrically after incubation periods of 6 and 12 weeks and expressed as mass loss (%) according to EN 113 (31): Mass loss(%) = (m0 −m1)/(m0)⋅100 [formula] […]

[11] = test system: O. placenta; assay: Growth inhibition on supplemented malt extract agar plates (Example 1); assay type: cell-based, Oligoporus placenta; conditions: 2% MEA; phenolic derivatives 4mM, VP 7/ 260a 5% (v/v); without wood; ±SE, n = 3
Method: as §4

[12] = test system: A. alternata; assay: as above; assay type: cell-based; conditions: 2% MEA; phenolic derivatives 4mM, VP 7/ 260a 5% (v/v); without wood; ±SE, n = 3
[13] = test system: O. placenta; assay: Biotests 2: mini-wood block decay test (comparable with EN 113), mass loss; assay type: cell-based, Oligoporus placenta; conditions: wood batch 2, non-leached and leached, 12 weeks incubation; numbers only in Figure 2
Method: as §3, §5, §6

| Structure (SMILES) | inhibition at 1000 µM [2] [%] | inhibition at 2000 µM [2] [%] | inhibition at 1000 µM [3] [%] | inhibition at 2000 µM [3] [%] | inhibition at 4000 µM [3] [%] | inhibition at 1000 µM [4] [%] | inhibition at 2000 µM [4] [%] | inhibition at 4000 µM [4] [%] | inhibition at 1000 µM [5] [%] | inhibition at 2000 µM [5] [%] | inhibition at 4000 µM [5] [%] | also measured |
| --- | --- | --- | --- | --- | --- | --- | --- | --- | --- | --- | --- | --- |
| COc1cc(C=O)cc(I)c1O [5-Iodo-Vanillin (commercial), 4-hydroxy-3-iodo-5-methoxybenzaldehyde] | 40.9 | 37.3 | 17.7 | 22.5 | 9.06 | 78.5 | 82 | 82.9 | 66.4 | 65.1 | 56.5 | inhibition at 1000 µM [1]: 1.36 ± 1.4%; inhibition at 2000 µM [1]: 7.31%; inhibition at 4000 µM [1]: 1.51 ± 2.4%; inhibition at 4000 µM [2]: 38.1% |
| CCn1c(=NN=c2sc3cc(S(=O)(=O)O)ccc3n2CC)sc2cc(S(=O)(=O)O)ccc21 [ABTS, 2,2-azino-bis(3-ethylbenzothiazoline-6-sulfonic acid)] |  |  |  |  |  |  |  |  |  |  |  | laccase-catalysed tri-iodide formation ([6]; pH 4, 10µM mediator): 0.13 µM/min/mg |
| COc1cc(C(C)=O)cc(OC)c1O [ACS, acetosyringone] |  |  |  |  |  |  |  |  |  |  |  | laccase-catalysed tri-iodide formation ([6]; pH 5, 50µM mediator): 0.89 µM/min/mg |
| CCOc1cc(C=O)ccc1O [Ethylvanillin] | 15.8 | 23.9 | 0 | 0 | 0 | 10.2 | 29.9 | 11.4 | 0 | 21.1 ± 18.3 | 31.2 ± 21.2 |  |
| O=C(O)c1ccc(O)cc1 [HBA, 4-hydroxybenzoic acid] |  |  |  |  |  |  |  |  |  |  |  | function as mediator ([6]; data not shown): not to have a function as mediator |
| [I-].[K+] [I1, potassium iodide] |  |  |  |  |  |  |  |  |  |  |  | Blue stain discoloration, Leached [7]: 3.7 ±0.4; Blue stain discoloration, Non-leached [7]: 2.2 ±0.4 |
| Cc1ccc(C(C)C)c(O)c1 [Thy, thymol] |  |  |  |  |  |  |  |  |  |  |  | Growth inhibition [%] on agar plate compared to control, T. versicolor [8]: 100 ±0.0%; Growth inhibition [%] on agar plate compared to control, D. pinicola [9]: 100 ±0.0%; Blue stain discoloration, Leached [7]: 3.5 and 3.5 ±0.3; Blue stain discoloration, Non-leached [7]: 2.5 and 2.5 ±0.6; mass loss of wood caused by T. versicolor (result in words) [10]: minor effect; Growth inhibition [%] on agar plate compared to control, O. placenta [11]: 100 ±0.0%; Growth inhibition [%] on agar plate compared to control, A. alternata [12]: 100 ±0.0%; mass loss of wood caused by O. placenta (result in words) [13]: minor effect |
| COc1cc(C=O)ccc1O [Vanillin, 4-hydroxy-3-methoxybenzaldehyde] | 2.19 ± 1 | 13.4 | 0 | 11.8 ± 8.5 | 55.3 | 6.59 ± 4.2 | 18.8 | 42 | 18.2 ± 31.6 | 24.2 | 61.5 | inhibition at 1000 µM [1]: 0%; inhibition at 2000 µM [1]: 8.52 ± 14.8%; inhibition at 4000 µM [1]: 17.9 ± 11.5%; inhibition at 4000 µM [2]: 51.4% |
